We go through 26 compounds from patent US20260042770A1, “NOVEL SULFONES AND THEIR USE AS NEUROPROTECTIVE AND/OR NEURORESTORATIVE AGENTS” (GENECODE, priority 2022, published 2026).

In the assay the target is T1, GFRα1-RET (Homo sapiens, UniProt P56159).
T1 construct: expressed in transfected cells; host or cells: MG87 murine fibroblasts stably transfected with PathDetect Elk-1, GFRα1 and RET
T1 sequence (P56159 25-429 limits assumed): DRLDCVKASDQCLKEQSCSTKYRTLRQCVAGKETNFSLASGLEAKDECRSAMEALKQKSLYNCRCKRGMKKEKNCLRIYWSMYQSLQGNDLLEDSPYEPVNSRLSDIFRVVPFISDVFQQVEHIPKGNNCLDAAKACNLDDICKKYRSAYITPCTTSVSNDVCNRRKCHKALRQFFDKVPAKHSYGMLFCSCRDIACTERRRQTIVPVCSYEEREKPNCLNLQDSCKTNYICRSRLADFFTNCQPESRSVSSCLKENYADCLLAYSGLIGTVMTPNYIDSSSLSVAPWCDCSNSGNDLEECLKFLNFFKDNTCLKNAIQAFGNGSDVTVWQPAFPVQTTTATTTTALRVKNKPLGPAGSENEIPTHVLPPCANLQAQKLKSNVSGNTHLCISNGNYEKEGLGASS
The assay is described as follows: Elk1 luciferase reporter-gene assay in cells expressing GFRα1-RET. The class given is cell-based. Particulars: agonist/activator activity of Elk1 signaling; MG87 murine fibroblast stably transfected with PathDetect Elk-1, GFRα1 and RET; 6 concentrations, duplicate, two independent runs. Here is the method:
For EC50 determination, a dose-response test was performed using 6 concentrations of each tested compound. Dose-response curves were fitted using the sigmoidal dose-response (variable slope) analysis in GraphPad Prism program (Graph Pad Inc) and EC50 of agonist/activator activity was calculated. Dose-response experiments were all performed in duplicate, two times independently.
(A reporter such as luciferase makes a cellular process visible.)

pEC50: −log10 of the molar value. A value given as a limit tells only on which side of the number the result lay.

`CC(C)(C)CS(=O)(=O)c1cc(Cl)c(OCCO)c(N2[C@@H]3CC[C@H]2CN(C(=O)c2ccc(F)cc2Cl)C3)c1` [Cpd 034, [(1S,5R)-8-[3-chloro-5-(2,2-dimethylpropylsulfonyl)-2-(2-hydroxyethoxy)phenyl]-3,8-diazabicyclo[3.2.1]octan-3-yl]-(2-chloro-4-fluoro-phenyl)methanone] showed a pEC50 of 5.00 to 6.00. Compound `COc1ccc(S(=O)(=O)CC2CC2)cc1N1CCN(C(=O)c2ccc(F)cc2Cl)CC1` [Cpd 009, (2-chloro-4-fluoro-phenyl)-[4-[5-(cyclopropylmethylsulfonyl)-2-methoxy-phenyl]piperazin-1-yl]methanone] showed a pEC50 of 5.00 to 6.00.

For the compound `COc1ccc(S(=O)(=O)CC(C)C)cc1N1CCN(C(=O)c2ccc(F)cc2C(F)(F)F)CC1` [Cpd 018, [4-fluoro-2-(trifluoromethyl)phenyl]-[4-(5-isobutylsulfonyl-2-methoxy-phenyl)piperazin-1-yl]methanone], the negative logarithm of the EC50 (pEC50) is 4.30 to 5.00.

Take `Cc1cc(S(=O)(=O)CC(C)(C)C)cc(N2[C@@H]3CC[C@H]2CN(C(=O)c2ccc(F)cc2Cl)C3)c1O` [Cpd 032, (2-chloro-4-fluoro-phenyl)-[(1S,5R)-8-[5-(2,2-dimethylpropylsulfonyl)-2-hydroxy-3-methyl-phenyl]-3,8-diazabicyclo[3.2.1]octan-3-yl]methanone]: the pEC50 was 5.00 to 6.00.

`CCC(CC)S(=O)(=O)c1ccc(OC)c(N2CCN(C(=O)c3ccc(F)cc3Cl)CC2C)c1` (racemic) [Cpd 007, (2-chloro-4-fluoro-phenyl)-[rac-(3S)-4-[5-(1-ethylpropylsulfonyl)-2-methoxy-phenyl]-3-methyl-piperazin-1-yl]methanone] gave a pEC50 of 5.00 to 6.00. As for `CC(C)(C)CS(=O)(=O)c1cc(Cl)c(Cl)c(N2[C@@H]3CC[C@H]2CN(C(=O)c2ccc(F)cc2Cl)C3)c1` [Cpd 035, (2-chloro-4-fluoro-phenyl)-[(1S,5R)-8-[2,3-dichloro-5-(2,2-dimethylpropylsulfonyl)phenyl]-3,8-diazabicyclo[3.2.1]octan-3-yl]methanone], the figure is more than 6.00; as for `CCC(CCCc1ccccc1)S(=O)(=O)c1ccc(OC)c(N2C3CCC2CN(C(=O)c2ccc(F)cc2Cl)C3)c1` (racemic) [Cpd 026, (2-chloro-4-fluoro-phenyl)-[(1S,5R)-8-[5-[(1SR)-1-ethyl-4-phenyl-butyl]sulfonyl-2-methoxy-phenyl]-3,8-diazabicyclo[3.2.1]octan-3-yl]methanone], 5.00 to 6.00; as for `COc1ccc(S(=O)(=O)C2CCN(CCc3ccccc3)CC2)cc1N1[C@@H]2CC[C@H]1CN(C(=O)c1ccc(F)cc1Cl)C2` [Cpd 028, (2-chloro-4-fluoro-phenyl)-[(1S,5R)-8-[2-methoxy-5-[[1-(2-phenylethyl)-4-piperidyl]sulfonyl]phenyl]-3,8-diazabicyclo[3.2.1]octan-3-yl]methanone], 5.00 to 6.00. In turn, `COc1ccc(S(=O)(=O)C2CCN(c3ccccc3)CC2)cc1N1[C@@H]2CC[C@H]1CN(C(=O)c1ccc(F)cc1Cl)C2` [Cpd 027, (2-chloro-4-fluoro-phenyl)-[(1S,5R)-8-[2-methoxy-5-[(1-phenyl-4-piperidyl)sulfonyl]phenyl]-3,8-diazabicyclo[3.2.1]octan-3-yl]methanone] had a pEC50 of more than 6.00. In turn, `COc1ccc(S(=O)(=O)CC(C)(C)C)cc1N1[C@@H]2CC[C@H]1CN(C(=O)c1ccc(F)cc1Cl)C2` [Cpd 015, (2-chloro-4-fluoro-phenyl)-[(1S,5R)-8-[5-(2,2-dimethylpropylsulfonyl)-2-methoxy-phenyl]-3,8-diazabicyclo[3.2.1]octan-3-yl]methanone] showed a pEC50 of 5.00 to 6.00. For the compound `COc1ccc(S(=O)(=O)C2CCCC2)cc1N1CCN(C(=O)c2ccc(F)cc2Cl)CC1C` (racemic) [Cpd 006, (2-chloro-4-fluoro-phenyl)-[rac-(3S)-4-(5-cyclopentylsulfonyl-2-methoxy-phenyl)-3-methyl-piperazin-1-yl]methanone], the pEC50 is 5.00 to 6.00. `CC(C)(C)CS(=O)(=O)c1cc(Cl)c(O)c(N2[C@@H]3CC[C@H]2CN(C(=O)c2ccc(F)cc2Cl)C3)c1` [Cpd 033, [(1S,5R)-8-[3-chloro-5-(2,2-dimethylpropylsulfonyl)-2-hydroxy-phenyl]-3,8-diazabicyclo[3.2.1]octan-3-yl]-(2-chloro-4-fluoro-phenyl)methanone] showed a pEC50 of more than 6.00. Regarding `COc1ccc(S(=O)(=O)C2CCCC2)cc1N1CCN(C(=O)c2ccc(F)cc2C(F)(F)F)CC1` [Cpd 002, [4-(5-cyclopentylsulfonyl-2-methoxy-phenyl)piperazin-1-yl]-[4-fluoro-2-(trifluoromethyl)phenyl]methanone], the pEC50 is 4.30 to 5.00.

Compound `CCC(C)S(=O)(=O)c1ccc(OC)c(N2C3CCC2CN(C(=O)c2ccc(F)cc2Cl)C3)c1` (racemic) [Cpd 022, (2-chloro-4-fluoro-phenyl)-[(1S,5R)-8-[2-methoxy-5-[(1SR)-1-methylpropyl]sulfonyl-phenyl]-3,8-diazabicyclo[3.2.1]octan-3-yl]methanone] had a pEC50 of 5.00 to 6.00.

`CCCC(C)S(=O)(=O)c1ccc(OC)c(N2CCN(C(=O)c3ccc(F)cc3Cl)CC2C)c1` (racemic) [Cpd 016] had a pEC50 of 5.00 to 6.00.

As for `COc1ccc(S(=O)(=O)CC2CCCC2)cc1N1CCN(C(=O)c2ccc(F)cc2Cl)CC1` [Cpd 013, (2-chloro-4-fluoro-phenyl)-[4-[5-(cyclopentylmethylsulfonyl)-2-methoxy-phenyl]piperazin-1-yl]methanone], the pEC50 is 5.00 to 6.00. As for `COc1ccc(S(=O)(=O)CCC2CCCC2)cc1N1[C@@H]2CC[C@H]1CN(C(=O)c1ccc(F)cc1Cl)C2` [Cpd 019, (2-chloro-4-fluoro-phenyl)-[(1S,5R)-8-[5-(2-cyclopentylethylsulfonyl)-2-methoxy-phenyl]-3,8-diazabicyclo[3.2.1]octan-3-yl]methanone], the figure is 5.00 to 6.00; as for `Cc1c(Cl)cc(S(=O)(=O)CC(C)(C)C)cc1N1[C@@H]2CC[C@H]1CN(C(=O)c1ccc(F)cc1Cl)C2` [Cpd 036, [(1S,5R)-8-[3-chloro-5-(2,2-dimethylpropylsulfonyl)-2-methyl-phenyl]-3,8-diazabicyclo[3.2.1]octan-3-yl]-(2-chloro-4-fluoro-phenyl)methanone], more than 6.00. Take `CCC(CCc1ccccc1)S(=O)(=O)c1ccc(OC)c(N2C3CCC2CN(C(=O)c2ccc(F)cc2Cl)C3)c1` (racemic) [Cpd 025, (2-chloro-4-fluoro-phenyl)-[(1S,5R)-8-[5-[(1SR)-1-ethyl-3-phenyl-propyl]sulfonyl-2-methoxy-phenyl]-3,8-diazabicyclo[3.2.1]octan-3-yl]methanone]: the pEC50 was 5.00 to 6.00. As to `COc1ccc(S(=O)(=O)Cc2ccccc2)cc1N1[C@@H]2CC[C@H]1CN(C(=O)c1ccc(F)cc1Cl)C2` [Cpd 014, [(1S,5R)-8-(5-benzylsulfonyl-2-methoxy-phenyl)-3,8-diazabicyclo[3.2.1]octan-3-yl]-(2-chloro-4-fluoro-phenyl)methanone], the pEC50 is 4.30 to 5.00.

In turn, `COc1ccc(S(=O)(=O)C2CCN(CCc3ccc(F)cc3)CC2)cc1N1[C@@H]2CC[C@H]1CN(C(=O)c1ccc(F)cc1Cl)C2` [Cpd 029, (2-chloro-4-fluoro-phenyl)-[(1S,5R)-8-[5-[[1-[2-(4-fluorophenyl)ethyl]-4-piperidyl]sulfonyl]-2-methoxy-phenyl]-3,8-diazabicyclo[3.2.1]octan-3-yl]methanone] showed a pEC50 of 5.00 to 6.00.

In the case of `COc1ccc(S(=O)(=O)C2CCCC2)cc1N1[C@@H]2CC[C@H]1CN(C(=O)c1ccc(F)cc1Cl)C2` [Cpd 004, (2-chloro-4-fluoro-phenyl)-[(1S,5R)-8-(5-cyclopentylsulfonyl-2-methoxy-phenyl)-3,8-diazabicyclo[3.2.1]octan-3-yl]methanone], the pEC50 was 5.00 to 6.00. Turning to `COc1ccc(S(=O)(=O)C(C)CCc2ccccc2)cc1N1C2CCC1CN(C(=O)c1ccc(F)cc1Cl)C2` (racemic) [Cpd 023, (2-chloro-4-fluoro-phenyl)-[(1S,5R)-8-[2-methoxy-5-[(1SR)-1-methyl-3-phenyl-propyl]sulfonyl-phenyl]-3,8-diazabicyclo[3.2.1]octan-3-yl]methanone], the negative-log EC50 (pEC50) is 5.00 to 6.00. As for `COc1ccc(S(=O)(=O)C2CCC2)cc1N1[C@@H]2CC[C@H]1CN(C(=O)c1ccc(F)cc1Cl)C2` [Cpd 010, (2-chloro-4-fluoro-phenyl)-[(1S,5R)-8-(5-cyclobutylsulfonyl-2-methoxy-phenyl)-3,8-diazabicyclo[3.2.1]octan-3-yl]methanone], the figure is 5.00 to 6.00; as for `CCC(CC)S(=O)(=O)c1ccc(OC)c(N2[C@@H]3CC[C@H]2CN(C(=O)c2ccc(F)cc2Cl)C3)c1` [Cpd 005, (2-chloro-4-fluoro-phenyl)-[(1S,5R)-8-[5-(1-ethylpropylsulfonyl)-2-methoxy-phenyl]-3,8-diazabicyclo[3.2.1]octan-3-yl]methanone], 5.00 to 6.00; as for `CCC(CC)CS(=O)(=O)c1ccc(OC)c(N2[C@@H]3CC[C@H]2CN(C(=O)c2ccc(F)cc2Cl)C3)c1` [Cpd 021, (2-chloro-4-fluoro-phenyl)-[(1S,5R)-8-[5-(2-ethylbutylsulfonyl)-2-methoxy-phenyl]-3,8-diazabicyclo[3.2.1]octan-3-yl]methanone], 5.00 to 6.00.

One may read the pEC50 as the EC50 on a negative log10 scale, so that one unit is a factor of ten.
